Reference: article PMC7229617, “N-alkylisatin-based microtubule destabilizers bind to the colchicine site on tubulin and retain efficacy in drug resistant acute lymphoblastic leukemia cell lines with less in vitro neurotoxicity” (Cancer Cell International, 2020)

Test system: T1, tubulin
T1 construct: gene TUBA1B; pure tubulin, alpha-beta heterodimer (colchicine site at alpha/beta interface); mixture of brain isotypes
Test: fluorescence competition (displacement of MTC), Equigra V5.[…] fit
Type: binding
Details: colchicine site, competitive with MTC; 10 mM phosphate pH 7, 1 mM EDTA, 1.5 mM MgCl2, 0.1 mM GTP, 25 °C; printed exponent ambiguous (10^5 or 10^4), unreliable

Structure (SMILES): O=C1C(=O)N(Cc2cccc3ccccc23)c2c(Br)cc(Br)cc21 [N1M-isatin, 5,7-dibromo-N-(naphthalene-1-ylmethyl)isatin]
- Binding affinity (M^-1) ± SEM^a: 1.4 ± 0.2 × 10^5(× 10^4)
